Experimental data reported in ChEMBL document CHEMBL1201862, “PubChem BioAssay data set” (2004).
Activity calls are given as the source filed them.

Experiments:
[1] = Vero E6 cell cytotoxicity, dose response, cytotoxicity control for non-replicating M. tuberculosis project, secondary assay (AID 492998); format: functional, VeroE6; conditions: Vero C1008
cells [2] = format: functional
[3] = MC4R antagonists, dose response, counter-screen for LGR2 antagonist project, cell-based, plate reader, cherry pick (AID 743444); format: functional;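 further: transfected HEK 293 cells stimulated with alpha-MSH peptide; potency of inhibitors of the alpha-MSH evoked signal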
Beta-galactosidase [4] = biological target: T1, Beta-galactosidase (Escherichia coli, UniProt Q8VNN2); assay: PubChem AID 485352; format: functional
[5] = A549 cell cytotoxicity, dose response, cytotoxicity control, plate reader, cherry-pick, antagonist series (AID 743412); format: functional, cell-based
[6] = Shn3 3'UTR reporter inhibitors, dose response, cell-based, Clone20 osteoblasts, firefly luciferase, cherry-picked (AID 624132); format: functional;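 further: firefly luciferase luminescence from reporter carrying the Shn3 3'UTR in osteoblasts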
[7] = cytotoxicity toward DRD oncogenic fibroblasts, dose response, cell-based, non-viral oncogenic, luminescence (AID 1934); format: functional; conditions: Homo sapiens
Vero [8] = assay: cells; format: functional, cell-based; conditions: Chlorocebus sabaeus
[9] = THP-1 cell cytotoxicity, dose response, cytotoxicity control for non-replicating M. tuberculosis project (AID 489025); format: functional
Vero [10] = assay: cells; format: functional; conditions: Chlorocebus sabaeus
[11] = biological target: T2, Kappa-type opioid receptor (Homo sapiens, UniProt P41145); format: functional
[12] = control 3'UTR Renilla luciferase suppression, dose response, counter-screen for Shn3 inhibitor project, cell-based, Clone20-Shn3RL, cherry-picked (AID 624133); format: functional
BJ [13] = assay: cells; format: functional, cell-based; conditions: Homo sapiens
[14] = LGR2 antagonists, dose response, cell-based, HEK293, CRE-luciferase reporter, cherry pick, set 2 (AID 743343); format: functional;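 further: transfected cells were stimulated with diluted bursicon conditioned medium after compound addition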
Protein skinhead-1 = biological target: T3, Protein skinhead-1 (Caenorhabditis elegans, UniProt P34707); format: functional
T3 sequence (P34707 whole entry): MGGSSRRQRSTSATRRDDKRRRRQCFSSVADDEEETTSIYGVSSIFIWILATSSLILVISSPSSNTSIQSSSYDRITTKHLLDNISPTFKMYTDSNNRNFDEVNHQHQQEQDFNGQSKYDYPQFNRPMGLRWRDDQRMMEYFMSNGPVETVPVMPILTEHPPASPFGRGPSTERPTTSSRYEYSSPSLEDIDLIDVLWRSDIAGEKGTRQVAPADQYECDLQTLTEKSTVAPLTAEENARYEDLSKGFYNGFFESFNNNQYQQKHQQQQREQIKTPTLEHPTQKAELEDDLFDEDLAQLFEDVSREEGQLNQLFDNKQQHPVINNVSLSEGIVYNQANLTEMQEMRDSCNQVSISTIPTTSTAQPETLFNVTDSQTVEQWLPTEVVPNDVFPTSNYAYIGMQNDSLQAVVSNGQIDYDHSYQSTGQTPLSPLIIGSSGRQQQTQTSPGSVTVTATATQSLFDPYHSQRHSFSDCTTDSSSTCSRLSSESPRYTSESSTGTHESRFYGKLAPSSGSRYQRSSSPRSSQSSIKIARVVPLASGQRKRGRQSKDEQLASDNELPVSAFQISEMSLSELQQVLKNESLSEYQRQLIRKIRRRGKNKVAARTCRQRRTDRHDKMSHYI

BJ [15] = assay: cytotoxicity toward BJ-TERT-LT-ST fibroblasts, dose response, cell-based, RAS-independent, luminescence (AID 1935); format: functional; conditions: Homo sapiens;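 further: BJ fibroblasts immortalized with TERT plus LT and ST oncogenes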
[16] = HEK293 cell cytotoxicity, dose response, cytotoxicity control, plate reader, cherry-picked samples (AID 743446); format: functional, cell-based
[17] = HepG2 cell cytotoxicity, dose response, cytotoxicity control, plate reader, cherry-pick, antagonist series (AID 743416); format: functional, cell-based
[18] = biological target: T2, Kappa-type opioid receptor; format: functional; remark: listed apart in the source
INS1 = assay: beta cell apoptosis inhibitors, cytokine rescue, dose response, luminescence, retest (AID 449756); format: functional, cell-based; conditions: Rattus norvegicus;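 further: cell death triggered by IL-1 beta plus TNF-alpha plus IFN-gamma mixture; protective hits raise ATP signal compared with cytokine alone wells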
[19] = HepG2 cell cytotoxicity, dose response, cytotoxicity control for Shn3 inhibitor project, CellTiter-Glo, cherry-picked (AID 624134); format: functional, cell-based
cells [20] = format: functional, cell-based
Beta-galactosidase [21] = biological target: T1, Beta-galactosidase; format: functional
cells [22] = format: functional, cell-based; remark: listed apart in the source
BJ [23] = assay: cytotoxicity toward BJ-TERT fibroblasts, dose response, cell-based, RAS-independent, luminescence (AID 1933); format: functional; conditions: Homo sapiens
[24] = HepG2 cell cytotoxicity, dose response, cytotoxicity control for non-replicating M. tuberculosis project (AID 489018); format: functional; conditions: Mycobacterium tuberculosis
[25] = biological target: Type-1 angiotensin II receptor (Homo sapiens, UniProt P30556); assay: AT1 receptor antagonists, dose response, selectivity assay for APJ receptor antagonist project, cell-based, uHTS hits (AID 463214); format: functional;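 further: antagonist potency against angiotensin II stimulated AT1 response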
Streptococcus = assay: Group A Streptococcus viability loss, dose response, counter-screen for streptokinase expression inhibitor project, luminescence, BacTiterGlo (AID 1915); format: functional, organism-based;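 further: potency for reduction of bacterial viability or growth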
Streptokinase A = biological target: T4, Streptokinase A (Streptococcus pyogenes serotype M1, UniProt P10520); assay: S. pyogenes streptokinase expression inhibitors, potency, dose response, plasminogen activation absorbance, OD405 (AID 1914); format: functional, Streptococcus pyogenes M1 GAS;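 further: secreted streptokinase activity via plasminogen activation per viability signal from cell pellet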
T4 sequence (P10520 whole entry): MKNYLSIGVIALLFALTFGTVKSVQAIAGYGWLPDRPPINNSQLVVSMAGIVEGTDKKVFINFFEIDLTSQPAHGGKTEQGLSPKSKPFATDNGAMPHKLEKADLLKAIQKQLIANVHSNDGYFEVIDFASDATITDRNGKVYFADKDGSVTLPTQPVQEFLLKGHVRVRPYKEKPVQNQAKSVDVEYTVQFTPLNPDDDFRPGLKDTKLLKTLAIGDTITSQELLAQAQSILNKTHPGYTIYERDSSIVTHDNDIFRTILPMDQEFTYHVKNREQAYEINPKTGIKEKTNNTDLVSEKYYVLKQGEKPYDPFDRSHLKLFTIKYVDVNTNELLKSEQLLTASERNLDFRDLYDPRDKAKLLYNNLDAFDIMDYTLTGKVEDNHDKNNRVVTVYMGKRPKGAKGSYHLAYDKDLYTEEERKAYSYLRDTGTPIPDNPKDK

[26] = tested on: Streptococcus sp. 'group A'; assay: growth inhibition of control SK(-) GAS strain, dose response, counter-screen for streptokinase expression inhibitor project, luminescence, kanamycin, BacTiterGlo, confirmation (AID 1900); format: functional, organism-based

T1 sequence (Q8VNN2 whole entry): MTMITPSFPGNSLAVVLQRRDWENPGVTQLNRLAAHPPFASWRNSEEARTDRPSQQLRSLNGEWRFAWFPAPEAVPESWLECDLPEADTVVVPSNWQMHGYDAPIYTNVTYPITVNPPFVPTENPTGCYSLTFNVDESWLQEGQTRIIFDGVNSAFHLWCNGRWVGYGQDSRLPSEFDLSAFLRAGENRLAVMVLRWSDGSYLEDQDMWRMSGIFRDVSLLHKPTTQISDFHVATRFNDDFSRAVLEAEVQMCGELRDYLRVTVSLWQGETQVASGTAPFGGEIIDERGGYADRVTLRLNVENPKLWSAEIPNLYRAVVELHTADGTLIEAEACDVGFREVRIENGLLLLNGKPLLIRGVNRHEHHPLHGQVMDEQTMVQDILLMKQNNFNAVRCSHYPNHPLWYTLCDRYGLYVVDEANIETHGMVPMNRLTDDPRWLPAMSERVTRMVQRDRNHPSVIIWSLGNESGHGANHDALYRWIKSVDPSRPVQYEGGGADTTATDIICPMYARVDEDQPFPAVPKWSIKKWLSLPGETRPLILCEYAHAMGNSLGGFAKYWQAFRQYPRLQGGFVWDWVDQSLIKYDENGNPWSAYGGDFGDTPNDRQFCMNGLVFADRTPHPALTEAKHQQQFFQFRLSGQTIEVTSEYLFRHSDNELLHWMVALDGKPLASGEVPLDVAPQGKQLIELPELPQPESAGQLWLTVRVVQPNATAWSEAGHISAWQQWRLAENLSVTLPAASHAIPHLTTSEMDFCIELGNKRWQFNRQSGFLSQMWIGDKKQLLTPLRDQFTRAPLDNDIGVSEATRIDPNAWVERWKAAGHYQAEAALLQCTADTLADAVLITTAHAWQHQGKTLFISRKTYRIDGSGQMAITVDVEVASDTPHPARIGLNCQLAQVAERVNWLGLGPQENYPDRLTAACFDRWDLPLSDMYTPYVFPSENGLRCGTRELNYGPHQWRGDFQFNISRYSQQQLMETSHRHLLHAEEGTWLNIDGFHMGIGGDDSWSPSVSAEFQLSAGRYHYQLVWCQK
T2 sequence (P41145 whole entry): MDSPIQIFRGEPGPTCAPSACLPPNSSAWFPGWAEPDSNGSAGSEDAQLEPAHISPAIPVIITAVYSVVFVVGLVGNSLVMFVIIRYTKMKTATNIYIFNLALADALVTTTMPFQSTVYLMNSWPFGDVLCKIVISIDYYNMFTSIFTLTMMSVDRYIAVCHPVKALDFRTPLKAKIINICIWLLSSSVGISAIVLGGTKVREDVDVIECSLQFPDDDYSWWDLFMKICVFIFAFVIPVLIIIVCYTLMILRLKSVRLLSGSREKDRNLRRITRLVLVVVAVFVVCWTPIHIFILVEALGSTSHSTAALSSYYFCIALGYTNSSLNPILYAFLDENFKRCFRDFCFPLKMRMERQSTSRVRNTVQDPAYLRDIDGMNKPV
Sequence of Type-1 angiotensin II receptor (P30556 whole entry): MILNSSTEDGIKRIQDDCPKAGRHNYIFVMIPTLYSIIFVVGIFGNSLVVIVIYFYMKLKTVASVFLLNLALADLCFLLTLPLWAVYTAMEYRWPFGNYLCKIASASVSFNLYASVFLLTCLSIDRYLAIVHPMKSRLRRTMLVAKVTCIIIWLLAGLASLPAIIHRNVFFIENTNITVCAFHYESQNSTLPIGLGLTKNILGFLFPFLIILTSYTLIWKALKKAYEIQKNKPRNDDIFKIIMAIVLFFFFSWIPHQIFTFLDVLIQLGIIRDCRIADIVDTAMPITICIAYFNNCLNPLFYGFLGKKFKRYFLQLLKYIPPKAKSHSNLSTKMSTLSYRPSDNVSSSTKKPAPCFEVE

O=C(Nc1nc2c(F)cc(F)cc2s1)c1ccccn1
CC50 [1]: 2.12 µM (active)
IC50 (cells [2]): 0.42 µM (active)
AC50 [3]: 3.17 µM (active)
EC50 (Beta-galactosidase [4]): > 40 µM (inactive)
AC50 [5]: 2.66 µM (active)
AC50 [6]: 6.69 µM (active)
EC50 [7]: 1.63 µM (active)
IC50 (Vero [8]): > 25 µM (active)
CC50 [9]: 2.14 µM (active)
CC50 (Vero [10]): 7.89 µM (active)
IC50 [11]: > 32 µM
AC50 [12]: 2.21 µM (active)
EC50 (BJ [13]): 78.2 µM (active)
AC50 [14]: 4.05 µM (active)
IC50 (Protein skinhead-1): > 100 µM (inactive)
EC50 (BJ [15]): > 150 µM (not active)
AC50 [16]: 10.8 µM (active)
AC50 [17]: 2.09 µM (active)
IC50 [18]: 8.25 µM (active)
AC50 (INS1): 2.08 µM (active)
AC50 [19]: 15.2 µM (active)
EC50 (cells [20]): > 350 µM (not active)
EC50 (Beta-galactosidase [21]): > 31.5 µM (inactive)
EC50 (cells [22]): 7.18 µM (active)
EC50 (BJ [23]): 11.2 µM (active)
CC50 [24]: 4.95 µM (active)
IC50 [25]: 9.46 µM (active)

Cc1ccc(NNC(=O)c2cc(C(C)(C)C)nn2Cc2ccccc2)cc1
EC50 (Streptococcus): > 150 µM (not active)
EC50 (Beta-galactosidase [4]): > 40 µM (inactive)
EC50 (Streptokinase A): 29.5 µM (active)
EC50 [26]: 17.5 µM (active)
IC50 [25]: 3.81 µM (active)
